Counter-ions that a name gives are not always drawn.
target: T1, human GPR119 (Homo sapiens, UniProt Q8TDV5); experiment: Human Tet-inducible cAMP assay; assay type: cell-based; conditions: Flp-In-T-REx 293 tetracycline inducible cells expressing GPR119; cAMP by Hit Hunter cAMP kit; 1 hour at 37° C.; read-out: hGPR119 EC50
T1 construct: expressed in transfected cells; host or cells: Flp-In-T-REx 293 (tetracycline-inducible)
T1 sequence (Q8TDV5 1-335): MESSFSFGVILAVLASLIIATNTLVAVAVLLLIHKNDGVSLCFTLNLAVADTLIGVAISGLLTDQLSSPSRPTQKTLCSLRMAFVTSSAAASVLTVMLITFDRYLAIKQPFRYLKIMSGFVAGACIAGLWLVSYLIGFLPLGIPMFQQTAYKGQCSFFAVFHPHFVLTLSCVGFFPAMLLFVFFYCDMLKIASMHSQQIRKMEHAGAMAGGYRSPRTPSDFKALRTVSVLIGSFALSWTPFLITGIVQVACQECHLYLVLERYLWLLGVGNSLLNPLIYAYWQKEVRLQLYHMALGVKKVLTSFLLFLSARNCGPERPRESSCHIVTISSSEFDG
Experimental: The in vitro modulation of recombinant human GPR119 was determined as follows.
Human Tet-Inducible cAMP Assay
Cell lines expressing GPR119 are generated using the Flp-In-T-REx 293 tetracycline inducible gene expression system are cultured in culture medium comprising the following components: DMEM#11965, 10% FBS, 2 mM L-glutamine, 200 ug/ml Hygromycin B, and 15 ug/ml blasticidin.
For cAMP assays, cells are plated on 96 well plates (e.g., BD Falcon: REF 353948, black side, clear bottom, TC surface) at a density of about 4.5×10^4 cells per well in growth medium containing 1.0 ug/ml tetracycline (1.0 mg/ml stock). The cells are then incubated for 48 hours at 37° C.
Following the incubation, the growth medium is removed from the wells and the wells rinsed (once) with the assay buffer included in the Hit Hunter cAMP kit (100 μl/well). Following the wash, 20 μl of assay buffer is added to each well, followed by addition of 10 μl of a 3× concentration compound working solution. The solution is then mixed. The final concentration range of compound is from about 10^−5M to about 10^−11M. The reagents are then incubated at 37° C. at 5% CO2 for 1 hour.
The manufacturer's protocol may be followed for cAMP determination. The Hit Hunter cAMP kit protocol is outlined for the HIT-T15 cAMP assays described above.
Compounds of the present invention were tested in the Human Tet-inducible cAMP assay described immediately above and the results shown in Table 1 below were obtained.

Point of comparison: `COc1cccc(-n2ccc(OC3CCN(C(=O)OC(C)C)CC3)cc2=O)c1` [Example 12, isopropyl 4-(1-(3-methoxyphenyl)-2-oxo-1,2-dihydropyridin-4-yloxy)piperidine-1-carboxylate], EC50 3490 nM. Against it:
- CCCc1cnc(N2CCC(Oc3ccn(-c4ccc(C#N)c(F)c4)c(=O)c3)CC2)nc1 [Example 199, 2-fluoro-4-(2-oxo-4-(1-(5-propylpyrimidin-2-yl)piperidin-4-yloxy)pyridin-1(2H)-yl)benzonitrile] — 500-fold lower, 7 nM
- CCCc1cnc(N2CCC(Oc3ccn(-c4cncnc4)c(=O)c3)CC2)nc1 [Example 192, 4-(1-(5-propylpyrimidin-2-yl)piperidin-4-yloxy)-1-(pyrimidin-5-yl)pyridin-2(1H)-one] — 14-fold lower, 241 nM
- CCc1cnc(N2CCC(Oc3ccn(-c4cccnc4)c(=O)c3)CC2)nc1 [Example 133, 4-(1-(5-ethylpyrimidin-2-yl)piperidin-4-yloxy)-1-(pyridin-3-yl)pyridin-2(1H)-one] — 14-fold lower, 250 nM
- CS(=O)(=O)c1ccc(-n2ccc(OC3CCN(c4nc5ccccc5o4)CC3)cc2=O)cc1 [Example 51, 4-(1-(benzo[d]oxazol-2-yl)piperidin-4-yloxy)-1-(4-(methylsulfonyl)phenyl)pyridin-2(1H)-one] — 11-fold lower, 314 nM
- CCOc1ccc(OC(=O)N2CCC(Oc3ccn(-c4ccc(S(C)(=O)=O)cc4)c(=O)c3)CC2)cc1 [Example 125, 4-ethoxyphenyl 4-(1-(4-(methylsulfonyl)phenyl)-2-oxo-1,2-dihydropyridin-4-yloxy)piperidine-1-carboxylate] — 12-fold lower, 293 nM
- CS(=O)(=O)c1ccc(-n2ccc(OC3CCN(S(C)(=O)=O)CC3)cc2=O)cc1 [Example 83, 1-(4-(methylsulfonyl)phenyl)-4-(1-(methylsulfonyl)piperidin-4-yloxy)pyridin-2(1H)-one] — within 1.5-fold, 4340 nM
- Cc1cnc(N2CCC(Oc3ccn(-c4ccc(S(C)(=O)=O)cc4)c(=O)c3)CC2)nc1 [Example 108, 4-(1-(5-methylpyrimidin-2-yl)piperidin-4-yloxy)-1-(4-(methylsulfonyl)phenyl)pyridin-2(1H)-one] — 13-fold lower, 261 nM
- CCCc1cnc(N2CCCC(Oc3ccn(-c4ccc(S(C)(=O)=O)cc4)c(=O)c3)CC2)nc1 (centres unmarked) [Example 261, 1-(4-(methylsulfonyl)phenyl)-4-(1-(5-propylpyrimidin-2-yl)azepan-4-yloxy)pyridin-2(1H)-one] — 14-fold lower, 257 nM
- CCCc1cnc(N2CCC(Oc3cc(=O)n(-c4ccc(C#N)c(F)c4)cc3Cl)CC2)nc1 [Example 227, 4-(5-chloro-2-oxo-4-(1-(5-propylpyrimidin-2-yl)piperidin-4-yloxy)pyridin-1(2H)-yl)-2-fluorobenzonitrile] — 3500-fold lower, 1 nM
- CCCc1cnc(N2CCC(Oc3cc(C)n(-c4ccc(S(C)(=O)=O)cc4)c(=O)c3)CC2)nc1 [Example 165, 6-methyl-1-(4-(methylsulfonyl)phenyl)-4-(1-(5-propylpyrimidin-2-yl)piperidin-4-yloxy)pyridin-2(1H)-one] — within 1.5-fold, 5000 nM
- CC(C)OC(=O)N1CCC(Oc2ccn(-c3cncnc3)c(=O)c2)CC1 [Example 191, isopropyl 4-(2-oxo-1-(pyrimidin-5-yl)-1,2-dihydropyridin-4-yloxy)piperidine-1-carboxylate] — within 1.5-fold, 5090 nM
- CS(=O)(=O)c1ccc(-n2ccc(OC3CCN(c4ncc(C5CCC5)cn4)CC3)cc2=O)c(F)c1 [Example 243, 4-(1-(5-cyclobutylpyrimidin-2-yl)piperidin-4-yloxy)-1-(2-fluoro-4-(methylsulfonyl)phenyl)pyridin-2(1H)-one] — 390-fold lower, 9 nM
- CCCc1cnc(N2CCC(Oc3ccn(-c4ccc(C#N)cc4F)c(=O)c3)CC2)nc1 [Example 177, 3-fluoro-4-(2-oxo-4-(1-(5-propylpyrimidin-2-yl)piperidin-4-yloxy)pyridin-1(2H)-yl)benzonitrile, TFA salt] — 440-fold lower, 8 nM
- CS(=O)(=O)c1ccc(-n2ccc(OC3CCN(S(=O)(=O)c4ccccn4)CC3)cc2=O)cc1 [Example 86, 1-(4-(methylsulfonyl)phenyl)-4-(1-(pyridin-2-ylsulfonyl)piperidin-4-yloxy)pyridin-2(1H)-one] — within 1.5-fold, 3520 nM
- CC(C)OC(=O)N1[C@@H]2CC[C@@H]1CC(Oc1ccn(-c3ccc(S(C)(=O)=O)cc3)c(=O)c1)C2 (stereo partly drawn) [Example 27, (3-endo)-isopropyl 3-(1-(4-(methylsulfonyl)phenyl)-2-oxo-1,2-dihydropyridin-4-yloxy)-8-azabicyclo[3.2.1]octane-8-carboxylate] — within 1.5-fold, 3500 nM
- CCCc1cnc(N2CCC(Oc3cc(=O)n(-c4ccc(S(C)(=O)=O)cc4)cc3Cl)CC2)nc1 [Example 194, 5-chloro-1-(4-(methylsulfonyl)phenyl)-4-(1-(5-propylpyrimidin-2-yl)piperidin-4-yloxy)pyridin-2(1H)-one, TFA salt] — 700-fold lower, 5 nM
- CCCc1cnc(N2CCC(Oc3cc(=O)n(-c4ccc(S(C)(=O)=O)c(F)c4)cc3Cl)CC2)nc1 [Example 224, 5-chloro-1-(3-fluoro-4-(methylsulfonyl)phenyl)-4-(1-(5-propylpyrimidin-2-yl)piperidin-4-yloxy)pyridin-2(1H)-one, TFA salt] — 580-fold lower, 6 nM
- CCCOC(=O)N1CCC(Oc2ccn(-c3ccc(S(C)(=O)=O)cc3)c(=O)c2)CC1 [Example 91, propyl 4-(1-(4-(methylsulfonyl)phenyl)-2-oxo-1,2-dihydropyridin-4-yloxy)piperidine-1-carboxylate] — 11-fold lower, 304 nM
- CS(=O)(=O)c1ccc(-n2ccc(OC3CCN(S(=O)(=O)CC(F)(F)F)CC3)cc2=O)cc1 [Example 82, 1-(4-(methylsulfonyl)phenyl)-4-(1-(2,2,2-trifluoroethylsulfonyl)piperidin-4-yloxy)pyridin-2(1H)-one] — within 1.5-fold, 4030 nM
- N#Cc1ccc(-n2cc(Cl)c(OC3CCN(c4ncc(C5CC5)cn4)CC3)cc2=O)c(F)c1 [Example 265, 4-(5-chloro-4-(1-(5-cyclopropylpyrimidin-2-yl)piperidin-4-yloxy)-2-oxopyridin-1(2H)-yl)-3-fluorobenzonitrile] — 870-fold lower, 4 nM
- CC(C)OC(=O)N1CCC(Oc2ccn(-c3ccc(NC(=O)C(C)C)cc3)c(=O)c2)CC1 [Example 209, isopropyl 4-(1-(4-isobutyramidophenyl)-2-oxo-1,2-dihydropyridin-4-yloxy)piperidine-1-carboxylate] — within 1.5-fold, 3390 nM
- Cc1cc(Br)ccc1OC(=O)N1CCC(Oc2ccn(-c3ccc(S(C)(=O)=O)cc3)c(=O)c2)CC1 [Example 143, 4-bromo-2-methylphenyl 4-(1-(4-(methylsulfonyl)phenyl)-2-oxo-1,2-dihydropyridin-4-yloxy)piperidine-1-carboxylate] — 13-fold lower, 274 nM
- Cc1nc(S(C)(=O)=O)ccc1-n1ccc(OC2CCN(C(=O)OC(C)C)CC2)cc1=O [Example 207, isopropyl 4-(1-(2-methyl-6-(methylsulfonyl)pyridin-3-yl)-2-oxo-1,2-dihydropyridin-4-yloxy)piperidine-1-carboxylate, TFA salt] — 2-fold higher, 7070 nM
- CCCc1cnc(N2CCC(Oc3ccn(-c4ccc(NC(=O)C(C)(C)C)c(F)c4)c(=O)c3)CC2)nc1 [Example 239, N-(2-fluoro-4-(2-oxo-4-(1-(5-propylpyrimidin-2-yl)piperidin-4-yloxy)pyridin-1(2H)-yl)phenyl)pivalamide] — 390-fold lower, 9 nM
- CS(=O)(=O)c1ccc(-n2ccc(OC3CCN(S(=O)(=O)C4CC4)CC3)cc2=O)cc1 [Example 84, 4-(1-(cyclopropylsulfonyl)piperidin-4-yloxy)-1-(4-(methylsulfonyl)phenyl)pyridin-2(1H)-one] — within 1.5-fold, 3270 nM
